Test: Inhibition of [3H](+)-pentazocine binding to sigma receptor of guinea pig brain homogenates

Compound | Ki
NC1(c2cc3ccccc3s2)CCCCCC1 [1-Benzo[b]thiophen-2-yl-cycloheptylamine] | 9170 nM
c1ccc2sc(C3(N4CCCC4)CCCC3)cc2c1 [1-(1-Benzo[b]thiophen-2-yl-cyclopentyl)-pyrrolidine] | 125 nM
NC1(c2cc3ccccc3s2)CCCC1 [1-Benzo[b]thiophen-2-yl-cyclopentylamine] | 1730 nM
c1ccc2sc(C3(N4CCCCCC4)CCCC3)cc2c1 [1-(1-Benzo[b]thiophen-2-yl-cyclopentyl)-azepane] | 2890 nM
c1ccc2sc(C3(N4CCCCCC4)CCCCCC3)cc2c1 [1-(1-Benzo[b]thiophen-2-yl-cycloheptyl)-azepane] | 2710 nM
c1ccc2sc(C3(N4CCCCC4)CCCC3)cc2c1 [1-(1-Benzo[b]thiophen-2-yl-cyclopentyl)-piperidine] | 1100 nM
c1ccc2sc(C3(N4CCCCCC4)CCCCC3)cc2c1 [1-(1-Benzo[b]thiophen-2-yl-cyclohexyl)-azepane] | 674 nM
c1ccc2sc(C3(N4CCCC4)CCCCC3)cc2c1 [1-(1-Benzo[b]thiophen-2-yl-cyclohexyl)-pyrrolidine] | 168 nM
c1ccc2sc(C3(N4CCCC4)CCCCCC3)cc2c1 [1-(1-Benzo[b]thiophen-2-yl-cycloheptyl)-pyrrolidine] | 720 nM
NC1(c2cc3ccccc3s2)CCCCC1 [1-Benzo[b]thiophen-2-yl-cyclohexylamine] | 3170 nM
c1ccc2sc(C3(N4CCCCC4)CCCCCC3)cc2c1 [1-(1-Benzo[b]thiophen-2-yl-cycloheptyl)-piperidine] | 2230 nM

Reference: BindingDB's records for doi:10.1021/jm00061a009 (National Institute of Diabetes and Digestive and Kidney …, 1993)
